Legend:
[1] = tested on: amnesia-inducing effect of an electric shock; assay: Mnemic activity: antagonism of the amnesia-inducing effect of an electric shock; assay type: in vivo, rat (female Wistar); details: for minimal effective dose: sc, rat, subcutaneous, 5 minutes after the end of the learning session, retention measured 24 hours after the learning session, read-out: Active dose (minimum active dose reestablishing a normal threshold of between 8 to 11 graduations); for mnemic activity relative to the racemate: times more active than the racemate (compound A)
Description: The principle of the test is as follows:
The reaction of withdrawal of a rat's paw when subjected to an increasing and measured pressure is observed. The pressure at which the withdrawal reaction takes place is referred to as the "reaction threshold". This threshold is expressed by the number of graduations read diectly from the scale of the apparatus used (analgesia-meter UGO BASILE Milan) and thus corresponds to the minimum pressure which, applied to the paw of the animals, causes the paw to be withdrawn (learning session). Three measurements are carried out at intervals of 30 minutes.
When tested 24 hours after the end of the learning session, control animal show a natural retention of the previous test, which corresponds to a threshold of the order of 8 to 11 graduations.
The amnesia-inducing effect is produced by applying a trans-temporal supramaximal electric shock (100 mA, 120 Volts, 0.2 sec.) to the rats 15 minute after the end of the learning session. This amnesia-inducing effect due to the electric shock induces, when measuring the retention 24 hours later, an increase of the avoidance threshold which now corresponds to that of naive animals (which have not undergone a learning session), that is to say a threshold of between 14 and 19 graduations.
For each compound to be tested the minimum active dose (in mg/kg) reestablishing a normal threshold of between 8 to 11 graduations 24 hours after the learning session in animals subjected to electric shock is determined.
The compounds to be tested are administered subcutaneously, as a 10% solution or suspension, to groups of 10 rats (female Wistar rats weighing 150 g) 5 minutes after the end of the learning session. At the same time, a control group of 10 rats is given only a 0.9% aqueous sodium chloride solution.

[2] = Toxicity: LD 50 after intravenous administration in the male mouse; assay type: in vivo; details: in vivo; male mouse, intravenous
Description: (§1) The following table gives, for compounds A and B, the LD 50 in mg/kg determined on the male mouse and the male rat after intravenous administration

male mouse = assay: as above; assay type: in vivo
Description: as §1

[3] = Toxicity: LD 50 after intravenous administration in the male rat; details: in vivo
Description: as §1

Question: With `CCC(C(N)=O)N1CCCC1=O` (racemic) [compound A, alpha-ethyl-2-oxo-1-pyrrolidineacetamide] as the compound, how does the minimal effective dose [1] read?
Answer: 1.7 mg/kg

Question: Which minimal effective dose [1] does the source give for `CC[C@H](C(N)=O)N1CCCC1=O` [compound B, (R)-alpha-ethyl-2-oxo-1-pyrrolidineacetamide] here?
Answer: 0.17 mg/kg

Question: And the “mnemic activity relative to the racemate” value [1]?
Answer: 10 times

Question: What about the “mnemic activity relative to the racemate” value ([1]; listed as dextrorotatory enantiomer of alpha-ethyl-2-oxo-1-pyrrolidineacetamide) of the same compound?
Answer: about 10 times

Question: And the LD50 [2]?
Answer: 5600 mg/kg

Question: And the “toxicity relative to the racemate” value (male mouse; times lower toxicity than the racemic form, based on LD 50 in mouse and rat)?
Answer: 3 times

Question: What about the “toxicity relative to the racemate (in words)” value (male mouse; versus racemate (product A), LD 50 mouse and rat, intravenous) of the same compound?
Answer: three times less toxic

Question: What about the LD50 [3] of the same compound?
Answer: 5000 mg/kg
